Patent US20160031937A1, “NEURAL REGENERATION PEPTIDES AND USES THEREFOR” (CURONZ HOLDINGS COMPANY LIMITED, priority 2013, published 2016)
Read-outs that look alike come from different tables or passages of the source. Square brackets hold non-standard residues; d marks the D form. Ends that are not written are not given here. Aib = CC(C)(N)C(=O)O

Experiments:
human W9-hESCs [1] = experiment: H2O2 induced oxidative stress injury, LDH detected cell death; format: cell-based; conditions: for cell death reduced by (LDH): 50 μM H2O2, first 4 hours, corrected for basal injury; for reduced LDH release, net effect at 24 hours: H2O2 injury; for reduction of LDH detected cell death: between removal of H2O2 at 4 hours and 24 hours; for reduction of LDH release, net effect at 24 hours: H2O2
Method: (§1) Experiments with human embryonic stem cells (hESC) were carried out in accordance with the guidelines and regulations of the NHMRC and with the approval of the Austin Health Human Research Ethics Committee (Approval number H2008/03194), and University of Melbourne Human Research Ethics Committee (Approval number 0605017). H9 (WA-09, WiCell) cell lines were grown as previously described (Dottori & Pera, 2007).
(§2) Briefly, hESC were cultured on mitomycin-C treated mouse embryonic fibroblasts (MEFs) in hESC medium consisting of high-glucose Dulbecco's Modified Eagle Medium (DMEM) without sodium pyruvate, supplemented with 1% insulin/transferrin/selenium, 0.1 mM β-mercaptoethanol, 1% nonessential amino acids (NEAA), 2 mM glutamine, 25 U/ml penicillin, 25 μg/ml streptomycin (all from Invitrogen) and 20% fetal calf serum (FCS) (Hyclone).
(§3) Alternatively, hESC were cultured on mitomycin-C treated human foreskin fibroblasts (HFF; ATCC, CRL-2097) in KSR media consisting of DMEM/nutrient mixture F-12, supplemented with 0.1 mM […], 1% nonessential amino acids (NEAA), 2 mM glutamine, 25 U/ml penicillin, 25 μg/ml streptomycin and 20% knockout serum replacement (all from Invitrogen).
(§4) All cells were cultured at 37° C. in 5% CO2 with 100% humidity. Colonies were mechanically dissected every 7 days (subcultivated or passaged) and transferred to freshly prepared MEFs or HFFs. Media was changed every second day.
(§5) Neuronal differentiation was achieved using the noggin induction method described for mouse neurospheres as adapted by Dottori for human neurospheres (Dottori & Pera, 2007). The colonies were maintained at 37° C., with 5% CO2 in hESC medium supplemented with 500 ng/ml of Noggin for 14 days while replacing Noggin every other day.
(§6) At this point, the cells were washed with PBS and the colonies were again mechanically dissociated, but this time the central (differentiated) part of the colony was also cut into smaller pieces using a 26-gauge needle. The pieces were transferred to individual wells in a low adherent 96-well plate containing Neurobasal®A (NBM) (Invitrogen) supplemented with 1× X B-27® (Invitrogen) and 1× N-2 (Invitrogen) 20 ng/ml human recombinant EGF and 20 ng/ml human recombinant bFGF (Pharmacia). Media was changed every 2 to 3 days to allow neurosphere formation over 2 weeks.
(§7) In order to facilitate neuronal differentiation, neurospheres were again separated into smaller pieces under a dissection microscope, and three to four pieces were transferred to each well of a 96-well plate. Prior to this transfer, the plate was pre-coated with poly-D-lysine (10 μg/ml in PBS), washed in PBS, recoated with mouse laminin (5 μg/ml in PBS), and washed again. The cells were then grown for 11 days (with media changed every two days) in NBM lacking growth factors prior to induction of injury and assessment of hypothermia.
(§8) On the day of experiments, the medium was changed to NBM+N2 containing a B27 preparation lacking the usual antioxidants (Invitrogen; 10889-038) to eliminate their confounding effects (NBM-AO).
The media was replaced with fresh NBM-AO and the cells were incubated for a further 20 hours containing drug, before again measuring LDH. Oxidative stress was induced by adding 50 μM fresh H2O2 (Sigma, H1009) to the growth factor negative NBM on initiation of the experiment with continued culture for 4 hours when LDH was measured and NBM-AO without H2O2 was returned to the culture which was maintained for a further 20 hours before again measuring LDH. […]
Measurement of lactate dehydrogenase activity (a marker of total cell death) and TUNEL staining (a marker of apoptotic death) was performed according to the kit manufacturer's instructions (Roche, 1164479001 and 11684795910 respectively).
Within experiments, each comparison was performed at least in triplicate and the mean of these values taken forward into group comparisons. […]

human W9-hESCs [2] = format: cell-based; conditions: for reduction in LDH detected cell death: first 4 hours; for decrease of delayed injury (LDH): between removal of OGD at 4 hours and 24 hours
Method: as §1, §2, §3, §4, §5, §6, §7, §8
To maintain isoosmotic pressure conditions, 25 mM 2-deoxy-D-glucose was added to NBM-AO medium and equilibrated for 30 minutes at room temperature before the initial media change as described above. […] Culture supernatant was removed after this 4 hour period and stored at 4° C. until analysed for lactate dehydrogenase (LDH) activity.
The media was replaced with fresh NBM-AO and the cells were incubated for a further 20 hours containing drug, before again measuring LDH. Oxidative stress was induced by adding 50 μM fresh H2O2 (Sigma, H1009) to the growth factor negative NBM on initiation of the experiment with continued culture for 4 hours when LDH was measured and NBM-AO without H2O2 was returned to the culture which was maintained for a further 20 hours before again measuring LDH.

## Gly Arg Arg Ala Ala Pro Gly Arg Aib Gly Gly (GRRAAPGR[Aib]GG) [NRP2945, synthetic 11-mer peptidomimetic optimized for stability and pharmacokinetics]
Human W9-hESCs [1]; 1 pM NRP2945 at injury induction
  cell death reduced by (LDH): 35%
Human W9-hESCs [1]; 1 fM NRP2945 at injury induction
  cell death reduced by (LDH): 23.2%
Human W9-hESCs [1]; 10 fM NRP2945 at injury induction
  cell death reduced by (LDH): 40%
Human W9-hESCs [1]; 100 fM NRP2945 at injury induction
  cell death reduced by (LDH): 44%
Human W9-hESCs [1]; 1 pM NRP2945
  reduced LDH release, net effect at 24 hours: 26%
Human W9-hESCs [1]; 1 fM NRP2945
  reduced LDH release, net effect at 24 hours: 27%
Human W9-hESCs [1]; 10 fM NRP2945
  reduced LDH release, net effect at 24 hours: 48%
  reduction of LDH detected cell death: 70%
Human W9-hESCs [1]; 100 fM NRP2945
  reduced LDH release, net effect at 24 hours: 47%
  reduction of LDH detected cell death: 57%
Human W9-hESCs [1]; repeat experiment, 10 fM NRP2945 added at 0 hours
  reduction of LDH release, net effect at 24 hours: 48%
Human W9-hESCs [1]; repeat experiment, 10 fM NRP2945 added at 1 hour
  reduction of LDH release, net effect at 24 hours: 35%
Human W9-hESCs [1]; repeat experiment, 10 fM NRP2945 added at 3 hours (p≦0.124)
  reduction of LDH release, net effect at 24 hours: 23%
Human W9-hESCs [1]; repeat experiment, 100 fM NRP2945 added at 0 hours
  reduction of LDH release, net effect at 24 hours: 41%
Human W9-hESCs [1]; repeat experiment, 100 fM NRP2945 added at 1 hour
  reduction of LDH release, net effect at 24 hours: 39%
Human W9-hESCs [1]; repeat experiment, 100 fM NRP2945 added at 3 hours
  reduction of LDH release, net effect at 24 hours: 27%
Human W9-hESCs [1]; repeat experiment, first 4 hours of H2O2 injury, 10 fM NRP2945 added at 0 hours
  reduction in cell death (LDH): 40%
Human W9-hESCs [1]; repeat experiment, first 4 hours of H2O2 injury, 10 fM NRP2945 administered one hour after injury induction
  reduction in cell death (LDH): 35%
Human W9-hESCs [1]; repeat experiment, first 4 hours of H2O2 injury, 100 fM NRP2945 added at 0 hours
  reduction in cell death (LDH): 37%
Human W9-hESCs [1]; repeat experiment, first 4 hours of H2O2 injury, 100 fM NRP2945 administered one hour after injury induction
  reduction in cell death (LDH): 33%
Human W9-hESCs [1]; repeat experiment, first 4 hours of H2O2 injury, NRP2945 added 3 hours after injury induction (1 hour exposure)
  effect on cell death (LDH): no significant beneficial effect
Human W9-hESCs [2]; 100 fM NRP2945
  neuroprotective effects during OGD: did not show neuroprotective effects
Human W9-hESCs [2]; 4 hours of OGD injury, 100 pM NRP2945 plus 300 nM AMD3100
  decrease in LDH detected cell death in presence of CXCR4 inhibitor: abolished
Human W9-hESCs [2]; AMD3100 experiment, 4 hours of OGD injury, 100 pM NRP2945 without inhibitor
  decrease in LDH detected cell death: 44%
Human W9-hESCs [2]; AMD3100 experiment, OGD, 100 pM NRP2945 without inhibitor
  reduction of LDH release, net effect at 24 hours: 55%
Human W9-hESCs [2]; OGD, 1 pM NRP2945 at injury induction
  reduction in LDH detected cell death: 23%
Human W9-hESCs [2]; OGD, 10 pM NRP2945 at injury induction
  reduction in LDH detected cell death: 37%
Human W9-hESCs [2]; OGD, 100 pM NRP2945 at injury induction
  reduction in LDH detected cell death: 43%
Human W9-hESCs [2]; OGD, 1 pM NRP2945
  reduction of LDH release, net effect at 24 hours: 28%
Human W9-hESCs [2]; OGD, 10 pM NRP2945
  reduction of LDH release, net effect at 24 hours: 44%
Human W9-hESCs [2]; OGD, 100 pM NRP2945
  reduction of LDH release, net effect at 24 hours: 52%
Human W9-hESCs [2]; OGD, 100 pM NRP2945 plus 300 nM AMD3100
  reduction of LDH release, net effect at 24 hours, in presence of CXCR4 inhibitor: blocked
Human W9-hESCs [2]; OGD, 100 fM NRP2945
  reduction of LDH release, net effect at 24 hours: 17%
Human W9-hESCs [2]; 10 pM NRP2945
  decrease of delayed injury (LDH): 67%
Human W9-hESCs [2]; 100 pM NRP2945
  decrease of delayed injury (LDH): 79%
Human W9-hESCs [2]; repeat experiment, OGD, 10 pM NRP2945 during injury induction
  reduction in LDH detected cell death: 41%
Human W9-hESCs [2]; repeat experiment, OGD, 10 pM NRP2945 one hour after injury induction
  reduction in LDH detected cell death: 31%
Human W9-hESCs [2]; repeat experiment, OGD, 100 pM NRP2945 during injury induction
  reduction in LDH detected cell death: 47%
Human W9-hESCs [2]; repeat experiment, OGD, 100 pM NRP2945 one hour after injury induction
  reduction in LDH detected cell death: 34%
Human W9-hESCs [2]; repeat experiment, OGD, 10 pM NRP2945 added at 0 hours
  reduction of LDH release, net effect at 24 hours: 48%
Human W9-hESCs [2]; repeat experiment, OGD, 10 pM NRP2945 added at 1 hour
  reduction of LDH release, net effect at 24 hours: 36%
Human W9-hESCs [2]; repeat experiment, OGD, 10 pM NRP2945 added at 3 hours
  reduction of LDH release, net effect at 24 hours: 22%
Human W9-hESCs [2]; repeat experiment, OGD, 100 pM NRP2945 added at 0 hours
  reduction of LDH release, net effect at 24 hours: 54%
Human W9-hESCs [2]; repeat experiment, OGD, 100 pM NRP2945 added at 1 hour
  reduction of LDH release, net effect at 24 hours: 35%
Human W9-hESCs [2]; repeat experiment, OGD, 100 pM NRP2945 added at 3 hours
  reduction of LDH release, net effect at 24 hours: 22%
